Experimental data: patent US7282203B2, “Use of NOTCH pathway interfering agents for treatment of plasma cell disorders” (Health Research, Inc., priority 2003, dated 2007)

Assays:
MRC5 cell line = assay: Cytokine secretion on incubation of MRC5 cell line with JAG2 binding peptide; format: cell-based; settings: MRC5, different concentrations of peptide
Protocol: (§1) FIGS. 8A-C. Induction of the secretion of IL-6 (FIG. 8A); VEGF (FIG. 8B) and IGF-1 (FIG. 8C) by incubation of the MRC5 and RPMI8226 cell lines with a JAG2 binding peptide CDENYYSATCNKFCRPRND (SEQ ID NO:1) at the indicated concentrations.
(§2) In order to ascertain the involvement of JAG2 in the induction of the secretion of IL-6, VEGF and IGF-1, we incubated the MRC5 cell line with different concentrations of JAG2 peptide. This peptide corresponds to the binding region of JAG2 that activates NOTCH upon interaction. We also incubated the RPMI8226 cell line with this same peptide.

RPMI8226 cell line = assay: Cytokine secretion on incubation of RPMI8226 cell line with JAG2 binding peptide; format: cell-based; settings: RPMI8226 MM cell line
Protocol: as §1, §2

multiple myeloma = settings: cited from earlier work
OPM2 MM cells = assay: MTT assay, percent of living OPM2 MM cells cultured on fibroblast cells; format: cell-based; settings: for IC50: Homo sapiens, OPM-2
Protocol: FIG. 11A-D. IC50 for OPM2 cells (MM) incubated with doxorubicin (DOX) alone or in the presence of an anti-NOTCH or anti-JAG2 antibody. OPM2 (MM) cells were cultured on fibroblasts (MRC5) In FIG. 11 A, IC50 data is shown for cells incubated with different concentrations of DOX. In FIG. 11B, IC50 data is shown for OPM2 cells on fibroblast with […] DOX, an isotype antibody or an anti-NOTCH-EC antibody. In FIG. 11C, data is shown for the effect of the anti-NOTCH antibody alone, without DOX. In FIG. 11D, IC50 values are shown for OMP2 cells incubated alone, in the presence of DOX or in the presence of DOX with an anti-JAG2 antibody (M8).
To illustrate this embodiment, the anti-NOTCH-EC antibody or the anti-JAG2 antibody was used in combination with doxorubicin (DOX). The OPM2 MM cells were cultured for 48 hours on fibroblast cells with different concentrations of DOX. […] However, when increasing concentrations of the anti-JAG2 were added, the percent of living cells was seen to decrease.

## NH2-CDENYYSATCNKFCRPRND-OH (H-CDENYYSATCNKFCRPRND-OH; cysteine pairing not given here) [JAG2 binding peptide]
MRC5 cell line
  secretion of IGF-1: activated
  secretion of IL-6: activated
  secretion of VEGF: activated
RPMI8226 cell line
  secretion of IGF-1: no stimulation
  secretion of IL-6: no stimulation
  secretion of VEGF: no stimulation

## N[C@@H](Cc1ccc(N(CCCl)CCCl)cc1)C(=O)O [Melphalan]
Multiple myeloma; conventional chemotherapy, mainly Melphalan
  patients reaching complete remission (CR): 14%

## CC(C)C[C@H](NC(=O)[C@H](Cc1ccccc1)NC(=O)c1cnccn1)B(O)O [PS341]
Multiple myeloma; available trials
  CR/PR: 47%
  patients showing a >75% reduction of paraprotein: 30%

## COc1cccc2c1C(=O)c1c(O)c3c(c(O)c1C2=O)C[C@@](O)(C(=O)CO)C[C@@H]3O[C@H]1C[C@H](N)[C@H](O)[C@H](C)O1 [DOX, doxorubicin]
OPM2 MM cells; DOX alone (FIG. 11D)
  percent of living cells: no effect
OPM2 MM cells; DOX alone, 48 hours on fibroblast cells
  IC50: ~1000 nM
OPM2 MM cells; DOX in the presence of 40 μg (27 μg/ml) anti-NOTCH EC antibody
  IC50: 100 nM
OPM2 MM cells; with 40 μg anti-NOTCH EC antibody versus DOX alone
  reduction of DOX concentration at IC50: ~10 times
